Like-named read-outs stand apart in the source and are kept apart here.
What was measured:
[1] = system: OCI-Ly3 ABC-DLBCL cell line; experiment: 4-day proliferation assay OCI-Ly3; type: cell-based; details: Homo sapiens, read-out: Anti-proliferation: OCI-LY-3 IC50
Description: To assess anti-proliferative effects, MALT1 inhibitor test compounds were tested in 4-day proliferation assays using three different DLBCL cell lines.
Cells should be kept between 0.5-2.5 million cells per mL during culturing and cells should be supplemented every 2-3 days with fresh 50 μM beta-mercaptoenthanol. No beta-mercaptoethanol is used during the proliferation assay. OCI-Ly7 cells were propagated in IMDM (ThermoFisher) supplemented with 10% fetal bovine serum (HyClone), 2 mM L-glutamine (Sigma Aldrich) and 50 μg/mL Gentamycin. Cell passage numbers should not exceed 30.
10,000 TMD8, 10,000 OCI-Ly3 or 2,000 OCI-Ly7 cells were seeded in 100 μL media per well and incubated for 4 days at 37° C. and 5% CO2. Cell plating numbers were chosen based on growth curves to ensure linear cell growth. After 4 days of incubation 50 μl CellTiterGLO reagent (Promega) were added to each well and luminescence was measured on the Envision after 10 min of incubation at room temperature.

[2] = system: Secretion of IL10 by TMD8 ABC-DLBCL cells; experiment: Human IL10 Mesoscale assay (TMD-8); type: cell-based; details: read-out: Human IL10 Mesoscale assay (TMD-8)
Description: (§1) NFKB signaling regulates the secretion of multiple cytokines, including IL6 and IL10. Secretion of the cytokines IL6 and IL10 by TMD8 or OCI-LY3 ABC-DLBCL cells was measured using a mesoscale assay.
(§2) Cell passage number should not exceed 30. Cells should be kept between 0.5-2.5 million cells per mL during culturing and cells should be supplemented every 2-3 days with fresh 50 µM beta-mercaptoenthanol. No beta-mercaptoethanol was used during the mesoscale assay.
(§3) DMSO control wells were used to determine the maximum signal (High Control (HC)). […] Compounds and cells were incubated for 24 h at 37° C. and 5% CO2 (assay volume is 150 μL). After 24 h of incubation 50 μL of the supernatant was transferred to a MSD plate (V-Plex Proinflammation Panel 1 (human) kit, Mesoscale (MSD)) and incubated for 2 h with vigorous shaking (600 rpm) at room temperature. Following incubation, plates were washed 3× with PBS+0.05% Tween-20 and 25 μL detection antibody solution (IL6 & IL10 antibodies in diluent 3 (MSD)) was added per well followed by 2 h of incubation with vigorous shaking (600 rpm) at room temperature. After 3× washes with PBS+0.05% Tween-20, plates were incubated with 150 μL 2× Read Buffer T and read on SECTOR imager.

[3] = target: T1, full-length MALT1 protein (Strep-MALT1(1-824)-His) (Homo sapiens, UniProt Q9UDY8); experiment: biochemical;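 note: fluorogenic LRSR-AMC substrate cleavage by MALT1, 50 min compound preincubation then 4 h reaction at RT, 11-point dilution from 30 µM, scaled between enzyme-free and untreated enzyme controls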
T1 sequence (Q9UDY8 1-824): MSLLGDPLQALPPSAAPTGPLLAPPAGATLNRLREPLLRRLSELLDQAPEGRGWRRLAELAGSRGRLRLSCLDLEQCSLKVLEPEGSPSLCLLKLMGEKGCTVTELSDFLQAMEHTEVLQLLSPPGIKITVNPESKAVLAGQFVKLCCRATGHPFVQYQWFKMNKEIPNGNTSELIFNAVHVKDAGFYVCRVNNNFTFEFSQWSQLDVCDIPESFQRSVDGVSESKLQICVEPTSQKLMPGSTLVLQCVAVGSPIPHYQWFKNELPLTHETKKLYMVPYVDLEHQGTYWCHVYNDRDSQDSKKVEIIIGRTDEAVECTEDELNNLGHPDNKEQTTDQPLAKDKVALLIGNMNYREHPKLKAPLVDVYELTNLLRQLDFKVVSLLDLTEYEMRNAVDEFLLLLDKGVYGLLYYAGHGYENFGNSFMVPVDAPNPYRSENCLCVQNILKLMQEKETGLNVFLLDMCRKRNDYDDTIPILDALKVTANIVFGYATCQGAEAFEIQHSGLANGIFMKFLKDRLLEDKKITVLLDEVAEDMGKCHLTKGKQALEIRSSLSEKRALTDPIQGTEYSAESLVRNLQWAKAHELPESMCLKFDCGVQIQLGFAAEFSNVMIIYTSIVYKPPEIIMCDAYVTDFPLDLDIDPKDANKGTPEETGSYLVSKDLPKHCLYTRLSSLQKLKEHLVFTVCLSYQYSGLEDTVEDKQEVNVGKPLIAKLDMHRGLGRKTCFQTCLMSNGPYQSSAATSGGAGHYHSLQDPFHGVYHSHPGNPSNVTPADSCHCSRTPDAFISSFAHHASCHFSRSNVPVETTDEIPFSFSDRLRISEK

[4] = system: Secretion of IL6 by OCI-LY3 ABC-DLBCL cells; experiment: Human IL6 Mesoscale assay (OCI-LY3); type: cell-based; details: read-out: Human IL6 Mesoscale assay (OCI-LY3)
Outline: (§4)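 TMD8 or OCI-LY3 ABC-DLBCL cells incubated with compound 24 h at 37° C without beta-mercaptoethanol. Secreted IL6 and IL10 in supernatant quantified by MSD electrochemiluminescence immunoassay; DMSO wells define maximum signal.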

[5] = system: Secretion of IL10 by OCI-LY3 ABC-DLBCL cells; experiment: Human IL10 Mesoscale assay (OCI-LY3); type: cell-based; details: read-out: Human IL10 Mesoscale assay (OCI-LY3)
Outline: as §4

[6] = system: Secretion of IL6 by TMD8 ABC-DLBCL cells; experiment: Human IL6 Mesoscale assay (TMD-8); type: cell-based; details: TMD8 cells, 24 h incubation, supernatant, MSD V-Plex, read-out: Human IL6 Mesoscale assay (TMD-8)
Description: as §1, §2, §3

[7] = 96 h, 10,000 OCI-Ly3 cells per well, 4 days, CellTiterGLO
[8] = TMD8 cells, 24 h incubation, supernatant, MSD V-Plex
[9] = OCI-LY3 cells, 24 h incubation, supernatant, MSD V-Plex

SMILES | IC50 [1, 7] [nM] | IC50 [2, 8] [nM] | IC50 [3] [nM] | IC50 ([1]; OCI-Ly3, 96 h) [nM] | IC50 ([2]; TMD8, 24 h) [nM] | IC50 [4, 9] [nM] | IC50 [5, 9] [nM] | IC50 ([4]; OCI-Ly3, 24 h) [nM] | IC50 ([5]; OCI-Ly3, 24 h) [nM] | IC50 [6] [nM]
Cc1cccnc1-n1ncc(C(=O)Nc2cnc(-n3nccn3)c(Cl)c2)c1C(F)(F)F [Cpd 3, N-(5-Chloro-6-(2H-1,2,3-triazol-2-yl)pyridin-3-yl)-1-(3-methylpyridin-2-yl)-5-(trifluoromethyl)-1H-pyrazole-4-carboxamide] | 2460 | 832 | 282 | – | – | – | – | – | – | –
O=C(Nc1cnc(-n2nccn2)c(Cl)c1)c1cnn(-c2ccncc2)c1C(F)(F)F [Cpd 4, N-(5-Chloro-6-(2H-1,2,3-triazol-2-yl)pyridin-3-yl)-1-(pyridin-4-yl)-5-(trifluoromethyl)-1H-pyrazole-4-carboxamide] | 1050 | 933 | 282 | – | – | – | – | – | – | –
O=C(Nc1cnc(-n2nccn2)c(Cl)c1)c1cnn(-c2ccc(F)cc2)c1C(F)(F)F [Cpd 18, N-(5-chloro-6-(2H-1,2,3-triazol-2-yl)pyridin-3-yl)-1-(4-fluorophenyl)-5-(trifluoromethyl)-1H-pyrazole-4-carboxamide] | – | – | 151 | 6460 | 115 | – | – | – | – | –
N#Cc1ccc(-n2ncc(C(=O)Nc3cnc(-n4nccn4)c(Cl)c3)c2C(F)(F)F)cc1 [Cpd 19, N-(5-chloro-6-(2H-1,2,3-triazol-2-yl)pyridin-3-yl)-1-(4-cyanophenyl)-5-(trifluoromethyl)-1H-pyrazole-4-carboxamide] | 7940 | 117 | 132 | – | – | – | – | – | – | –
O=C(Nc1cnc(-n2nccn2)c(Cl)c1)c1cnn(-c2cccc(F)c2)c1C(F)(F)F [Cpd 20, N-(5-chloro-6-(2H-1,2,3-triazol-2-yl)pyridin-3-yl)-1-(3-fluorophenyl)-5-(trifluoromethyl)-1H-pyrazole-4-carboxamide] | – | – | 562 | 12600 | 1000 | – | – | – | – | –
Nc1nc(-n2ncc(C(=O)Nc3cnc(-n4nccn4)c(Cl)c3)c2C(F)(F)F)ccc1F [Cpd 62, 1-(6-amino-5-fluoropyridin-2-yl)-N-(5-chloro-6-(2H-1,2,3-triazol-2-yl)pyridin-3-yl)-5-(trifluoromethyl)-1H-pyrazole-4-carboxamide] | 912 | – | 45 | – | – | 380 | 427 | – | – | –
N#Cc1cc(NC(=O)c2cnn(-c3ccc(F)c(N)n3)c2C(F)(F)F)cnc1-n1nccn1 [Cpd 63, 1-(6-amino-5-fluoropyridin-2-yl)-N-(5-cyano-6-(2H-1,2,3-triazol-2-yl)pyridin-3-yl)-5-(trifluoromethyl)-1H-pyrazole-4-carboxamide] | 2510 | – | 24 | – | – | 69 | 49 | – | – | –
COc1cc(F)ccc1-n1ncc(C(=O)Nc2cnc(-n3nccn3)c(Cl)c2)c1C(F)(F)F [Cpd 81, N-(5-chloro-6-(2H-1,2,3-triazol-2-yl)pyridin-3-yl)-1-(4-fluoro-2-methoxyphenyl)-5-(trifluoromethyl)-1H-pyrazole-4-carboxamide] | 1260 | – | 162 | – | – | 138 | 138 | – | – | –
N#Cc1cc(NC(=O)c2cnn(-c3c(F)cccc3Cl)c2C(F)(F)F)cnc1-n1nccn1 [Cpd 98, 1-(2-chloro-6-fluorophenyl)-N-(5-cyano-6-(2H-1,2,3-triazol-2-yl)pyridin-3-yl)-5-(trifluoromethyl)-1H-pyrazole-4-carboxamide] | 437 | – | 263 | – | – | 191 | 166 | – | – | –
N#Cc1cc(NC(=O)c2cnn(-c3c(F)cc(F)cc3Cl)c2C(F)(F)F)cnc1-n1nccn1 [Cpd 99, 1-(2-chloro-4,6-difluorophenyl)-N-(5-cyano-6-(2H-1,2,3-triazol-2-yl)pyridin-3-yl)-5-(trifluoromethyl)-1H-pyrazole-4-carboxamide] | – | – | 170 | 324 | – | – | – | 148 | 174 | –
N#Cc1cc(NC(=O)c2cnn(-c3ccccc3C3CC3)c2C(F)(F)F)cnc1-n1nccn1 [Cpd 100, N-(5-cyano-6-(2H-1,2,3-triazol-2-yl)pyridin-3-yl)-1-(2-cyclopropylphenyl)-5-(trifluoromethyl)-1H-pyrazole-4-carboxamide] | 269 | – | 170 | – | – | 129 | 93 | – | – | –
Cc1cccc(F)c1-n1ncc(C(=O)Nc2cnc(-n3nccn3)c(C#N)c2)c1C(F)(F)F [Cpd 101, N-(5-cyano-6-(2H-1,2,3-triazol-2-yl)pyridin-3-yl)-1-(2-fluoro-6-methylphenyl)-5-(trifluoromethyl)-1H-pyrazole-4-carboxamide] | 479 | – | 151 | – | – | 166 | 120 | – | – | –
Cc1ccc(F)cc1-n1ncc(C(=O)Nc2cnc(-n3nccn3)c(C#N)c2)c1C(F)(F)F [Cpd 103, N-(5-cyano-6-(2H-1,2,3-triazol-2-yl)pyridin-3-yl)-1-(5-fluoro-2-methylphenyl)-5-(trifluoromethyl)-1H-pyrazole-4-carboxamide] | – | – | 148 | 275 | – | – | – | 129 | 141 | –
N#Cc1cc(NC(=O)c2cnn(-c3ccc(F)cc3F)c2C(F)(F)F)cnc1-n1nccn1 [Cpd 111, N-(5-cyano-6-(2H-1,2,3-triazol-2-yl)pyridin-3-yl)-1-(2,4-difluorophenyl)-5-(trifluoromethyl)-1H-pyrazole-4-carboxamide] | 1820 | – | 112 | – | – | 71 | 63 | – | – | –
CN1CCc2c1cccc2-n1ncc(C(=O)Nc2cnc(-n3nccn3)c(C#N)c2)c1C(F)(F)F [Cpd 128, N-(5-cyano-6-(2H-1,2,3-triazol-2-yl)pyridin-3-yl)-1-(1-methylindolin-4-yl)-5-(trifluoromethyl)-1H-pyrazole-4-carboxamide] | – | 2240 | 229 | – | – | – | – | – | – | 1020
Cc1nc(-n2ncc(C(=O)Nc3cnc(-n4nccn4)c(C#N)c3)c2C(F)(F)F)ccc1F [Cpd 160, N-(5-cyano-6-(2H-1,2,3-triazol-2-yl)pyridin-3-yl)-1-(5-fluoro-6-methylpyridin-2-yl)-5-(trifluoromethyl)-1H-pyrazole-4-carboxamide] | 490 | – | 288 | – | – | 646 | 457 | – | – | –

Reference: patent US11040031B2, “Pyrazole derivatives as MALT1 inhibitors” (Janssen Pharmaceutica NV, priority 2018, dated 2021)
